Common to all, as to type: cell-based
In one data set the test system is BT-20 or MDA-MB468 cells. Kind of data set: Cellular reactive oxygen species (ROS) detection assay (H2DCFDA). Conditions: 2 μM. The protocol: To assess the effect of TPH104 on the generation of ROS, a cell permeant, fluorogenic dye, 2′,7′-dichlorofluorescin diacetate, H2DCFDA, was used. A 5 mM stock solution was prepared using DMSO and PBS was used to prepare the 3 μM working solution of H2DCFDA. The TNBC cells were seeded in a 6-well plate as described in the cell cycle assay. After overnight incubation, cells were incubated with different TPH104 (1, 2, 5 μM) or vehicle for 12 h or with 2 μM of paclitaxel (positive control) for 2 h. The H2DCFDA dye (3 μM) was added to each well and the plate was incubated for an additional 30 minutes. Subsequently, cells were washed 3 times in PBS to remove excess H2DCFDA dye. Thereafter, cells from each well were captured from randomly selected fields using a fluorescent microscope (EVOS-FLC cell imaging system, Thermofisher scientific) at 40× to determine the 2′,7′-dichlorofluorescein (DCF) fluorescence intensity, which is positively correlated with the generation of ROS.

For data set [1], the system named is MDA-MB231 (TNBC cell line). Kind of data set: MTT cell viability assay, MDA-MB231. Conditions: Homo sapiens, MDA-MB-231, 72 h, read-out: IC50 ± SD, MDA-MB231. The protocol: (§1) The following cancer and non-cancer cell lines were used in the initial cytotoxicity screening of the TPH104 compounds: triple negative breast cancer (TNBC): MDA-MB468, MDA-MB 231, and BT-20; non-TNBC: MCF-7 and ZR-75-1; ovarian: Ov2008; prostate: DU145; colon: HCT-116, S1, and LOVO; lung: H460; normal kidney: HEK-293; normal breast: HMEC; and normal colon: CRL-1459. All cells were cultured in Dulbecco's modified Eagle medium (DMEM), supplemented with 10% fetal bovine serum (FBS), and 1% penicillin/streptomycin (P/S). Cells were allowed to grow as adherent monolayers in T25 flasks in a humidified incubator with 5% CO2 at 37° C. for a period of 24 h, unless otherwise specified for certain experiments.
(§2) The MTT assay was used to determine the cytotoxicity of all of the compounds. Briefly, in a 96-well flat-bottom cell culture plate, the cells were seeded at a density between 3-5×10^3 cells/well (180 μl in each well) and incubated for 24 h (a hemocytometer was used for cell counting). The next day, the cells were incubated with different concentrations of the nine compounds (0, 0.1, 0.3, 1, 3, 10, 30, and 100 μM) for 72 h. After 72 h, 20 μl of 5 mg/ml of 3-(4,5-dimethylthiazol-2-yl)-2,5-diphenyltetrazolium bromide (MTT) was added to the plate and incubated with the cells for 3 h at 37° C. In this experiment, the living cells will reduce the soluble MTT dye to non-soluble purple formazan crystals. Following incubation, the media containing MTT removed via suction and 100 μL of 100% dimethyl sulfoxide (DMSO) was added to dissolve the formazan crystals. Subsequently, the plate was shaken for 2 minutes and the absorbance was measured at a wavelength of 570 nm using a SpectraMax iD3 Multi-Mode Microplate Reader (Molecular Devices, Sunnyvale, CA). The IC50 values of each compound were calculated and used to determine the selectivity ratio (IC50 in normal cells/IC50 in cancer cells) of each compound as previously described. Based on the results obtained from these experiments, the compound TPH104, which had the lowest IC50 value, was selected for further experiments.
On the technique in general: Tetrazolium dyes change colour on reduction, which living cells bring about.

The subject of data set [2] is MDA-MB468 (TNBC cell line). Nature of the data set: MTT cell viability assay, MDA-MB468. Conditions: Homo sapiens, MDA-MB-468, 72 h, read-out: IC50 ± SD, MDA-MB468. The protocol:
as §1, §2

Data set [3] has as its system ZR-75-1 (non-TNBC cell line). Kind of data set: MTT cell viability assay, ZR-75-1. The conditions noted are these: Homo sapiens, ZR-75-1, 72 h, read-out: IC50 ± SD, ZR-75-1. The protocol:
as §1, §2

The subject of data set [4] is MCF-7 (non-TNBC cell line). Kind of data set: MTT cell viability assay, MCF-7. Conditions: Homo sapiens, MCF7, 72 h, read-out: IC50 ± SD, MCF-7. The protocol: as §1, §2
For data set [5], the system named is normal human mammary epithelial cells (HMEC). Kind of data set: MTT cell viability assay, HMEC. The conditions noted are these: Homo sapiens, HMEC; MTT, 72 h; Normal; read-out: IC50 ± SD, HMEC. The protocol: as §1, §2
The test system of a further data set is TNBC cell lines. Kind of data set: Cytotoxicity screening (MTT), TNBC cell lines overall. Conditions: classification of Table 1 cytotoxicity data.
Description: To this end, several commercial databases were searched, and 17 similar molecules from the VitasM database were retrieved with considerable structural diversity in terms of the substitution on the aryl ring A attached to the thienopyrimidine scaffold and aryl ring B attached to hydrazino moiety. Further, the biological evaluation of the 17 molecules sheds light on the structural features deemed important for the selective cytotoxicity shown by this class of molecules. With this understanding, the 17 molecules were subjected to a screening protocol comprising of two TNBC, two non-TNBC, and one normal cell lines.
as §1, §2

Data set [6] has as its target T1, P-gp (ABCB1), DU145TXR prostate cancer cells (Homo sapiens, UniProt P08183).
T1 construct: endogenous in cells; host or cells: DU145TXR prostate cancer cells
Nature of the data set: Calcein AM assay for P-gp modulation. The conditions noted are these: concentration dependent. The protocol: Ability of P-gp to efflux Calcein AM is used to identify the molecules which interfere with P-gp transporter activity. About 10000 cells of DU145TXR prostate cancer cells were seeded in each well in 96 well plates and allowed to grow until confluency for 4-5 days. Then media was replaced with phenol red free RPMI media and cells were treated with indicated concentrations of TPH104s and 1 μg/mL of Calcein AM. Fluorescence measured after 60 minutes with excitation at 485/20 nm and at emission 535/20 nm using the BioTek Cytation 5 imaging multi-mode reader (Bio-Tek, Winooski, VT). DMSO (0.5% v/v) was used as the vehicle, and 15 μM of Pgp inhibitor SMU 45 was used as a positive control. (n=6 in each trial).

The target of data set [7] is T2, BCRP (ABCG2), MCF-7 M100 breast cancer cells (Homo sapiens, UniProt Q9UNQ0).
T2 construct: endogenous in cells; host or cells: MCF-7 M100 breast cancer cells
T2 sequence (Q9UNQ0 whole entry): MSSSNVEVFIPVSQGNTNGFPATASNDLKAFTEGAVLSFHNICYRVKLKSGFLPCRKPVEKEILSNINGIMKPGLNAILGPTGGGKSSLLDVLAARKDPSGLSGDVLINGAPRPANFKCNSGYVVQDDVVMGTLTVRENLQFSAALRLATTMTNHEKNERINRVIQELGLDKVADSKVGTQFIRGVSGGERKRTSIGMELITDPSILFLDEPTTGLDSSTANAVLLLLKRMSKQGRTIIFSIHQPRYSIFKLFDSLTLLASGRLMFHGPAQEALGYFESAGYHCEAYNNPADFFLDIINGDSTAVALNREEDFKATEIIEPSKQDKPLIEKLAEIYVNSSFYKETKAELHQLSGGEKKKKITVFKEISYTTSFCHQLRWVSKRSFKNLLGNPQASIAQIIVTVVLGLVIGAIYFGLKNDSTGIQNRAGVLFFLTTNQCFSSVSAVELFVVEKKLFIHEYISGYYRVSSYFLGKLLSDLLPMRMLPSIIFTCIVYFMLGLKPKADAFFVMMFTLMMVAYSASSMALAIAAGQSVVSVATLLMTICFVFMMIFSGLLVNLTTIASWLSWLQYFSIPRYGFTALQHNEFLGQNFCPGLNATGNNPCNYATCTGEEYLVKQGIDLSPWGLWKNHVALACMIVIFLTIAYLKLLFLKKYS
Nature of the data set: Hoechst 33342 assay for BCRP modulation. The conditions noted are these: concentration dependent. The protocol: Ability of BCRP to efflux nuclear stain Hoechst 33342 was used to identify the molecules which interfere with BCRP transporter activity. About 14000 cells of MCF-7 M100 breast cancer cells were seeded in each well in 96 well plates and allowed to grow until confluency for 4-5 days. Then media was replaced with phenol red free RPMI media and cells were treated with indicated concentrations of TPH104s and 5 μg/mL of Hoechst 33342. Fluorescence measured after 60 minutes with excitation at 361/20 nm and at emission 497/20 nm using the BioTek Cytation 5 imaging multi-mode reader (Bio-Tek, Winooski, VT). DMSO (0.5% v/v) was used as the vehicle, and 0.5 μM of BCRP inhibitor, Ko143 was used as a positive control and 15 μM of P-gp modulator, verapamil was used as negative control.

For the next data set, the system named is BT-20 cells. Kind of data set: Acridine orange assay. Conditions: 20 μM, 12 h, vs vehicle. The protocol: The cell-permeant, nucleic acid binding dye, acridine orange (AO) was used to assess the effect of TPH104 on the activation of lysosomes. A 10 μg/ml stock solution was prepared using PBS. The TNBC cells were seeded in a 6-well plate as described in the cell cycle assay. After overnight incubation, cells were incubated with TPH104 (1, 2, 5 μM), vehicle or 20 uM of chloroquine (CQ, […]) for 12 h. The media was removed via suction and 1 ml of AO, diluted in 1:1000 in PBS, was added to each well and the plate was incubated for an additional 30 minutes. Cells were washed three times in PBS to remove excess dye. The cells from each well were captured from randomly selected fields using a fluorescent microscope (EVOS-FLC cell imaging system, Thermofisher scientific) at 40× to determine the AO fluorescence intensity which is positively correlated to lysosomal activation.

A value given as a limit tells only on which side of the number the result lay.

As usually defined, the IC50 is the concentration needed to halve the response being measured.

T1 sequence (P08183 whole entry): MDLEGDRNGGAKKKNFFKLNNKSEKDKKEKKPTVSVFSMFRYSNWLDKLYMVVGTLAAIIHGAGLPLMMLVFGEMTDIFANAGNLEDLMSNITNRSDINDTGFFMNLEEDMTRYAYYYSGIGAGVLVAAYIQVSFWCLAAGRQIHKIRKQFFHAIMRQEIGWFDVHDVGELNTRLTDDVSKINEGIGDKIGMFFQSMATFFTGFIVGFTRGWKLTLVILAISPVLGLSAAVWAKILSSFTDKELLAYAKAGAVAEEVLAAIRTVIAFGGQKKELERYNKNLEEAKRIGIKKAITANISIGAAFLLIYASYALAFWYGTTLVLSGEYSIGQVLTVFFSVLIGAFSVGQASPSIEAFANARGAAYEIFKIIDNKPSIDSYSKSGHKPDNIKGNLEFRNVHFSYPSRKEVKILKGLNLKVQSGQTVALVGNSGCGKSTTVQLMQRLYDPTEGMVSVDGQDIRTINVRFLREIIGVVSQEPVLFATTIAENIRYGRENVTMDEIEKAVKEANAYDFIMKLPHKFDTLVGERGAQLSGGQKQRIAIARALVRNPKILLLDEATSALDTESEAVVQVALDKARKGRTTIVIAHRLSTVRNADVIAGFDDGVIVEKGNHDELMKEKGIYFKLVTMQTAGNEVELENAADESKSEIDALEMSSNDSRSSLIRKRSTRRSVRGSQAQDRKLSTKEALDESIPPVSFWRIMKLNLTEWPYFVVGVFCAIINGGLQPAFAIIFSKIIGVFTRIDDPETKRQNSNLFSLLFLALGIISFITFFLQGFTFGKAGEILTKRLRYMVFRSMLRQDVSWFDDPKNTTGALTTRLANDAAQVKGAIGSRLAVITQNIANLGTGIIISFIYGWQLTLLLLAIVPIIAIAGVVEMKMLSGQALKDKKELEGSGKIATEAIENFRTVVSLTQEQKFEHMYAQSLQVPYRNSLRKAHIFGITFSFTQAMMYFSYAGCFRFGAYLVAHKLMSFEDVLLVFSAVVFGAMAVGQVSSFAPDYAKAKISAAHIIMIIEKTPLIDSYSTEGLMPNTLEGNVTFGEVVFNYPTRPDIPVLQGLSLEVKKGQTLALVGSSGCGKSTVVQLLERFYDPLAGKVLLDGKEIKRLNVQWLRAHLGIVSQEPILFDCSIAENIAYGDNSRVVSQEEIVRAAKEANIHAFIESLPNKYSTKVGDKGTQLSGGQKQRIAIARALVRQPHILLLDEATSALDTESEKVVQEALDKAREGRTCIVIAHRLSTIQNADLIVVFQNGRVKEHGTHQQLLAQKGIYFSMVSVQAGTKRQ

In the case of `CC(=O)O[C@H]1C(=O)[C@@]2(C)[C@H]([C@H](OC(=O)c3ccccc3)[C@]3(O)C[C@H](OC(=O)[C@H](O)[C@@H](NC(=O)c4ccccc4)c4ccccc4)C(C)=C1C3(C)C)[C@]1(OC(C)=O)CO[C@@H]1C[C@@H]2O` [paclitaxel, reference compound], the “DCF fluorescence (ROS), positive control” value in the data set on BT-20 or MDA-MB468 cells is “significantly increased”.

Consider `Cc1ccc(-c2csc3ncnc(N/N=C/c4ccc(Br)cc4O)c23)cc1` [TPH104m], for which the IC50 in data set [1] is 0.44 ± 0.21 µM; in [2], 0.29 ± 0.01 µM; in data set [3], over 100 µM; in [4] it was 2.73 ± 1.02 µM; in data set [5], over 100 µM. The “potency compared to TPH104” value with TNBC cell lines is “comparable potency to that of TPH104”. Besides, the “efflux function of ABCB1” value in [6] is “blocking the efflux function”. Besides, in data set [7], the “efflux function of ABCG2” value is listed as “blocking the efflux function”.

`CCN(CC)CCCC(C)Nc1ccnc2cc(Cl)ccc12` (stereo not shown) [chloroquine, reference compound]: the “AO fluorescence intensity, negative control” value with BT-20 cells is on record as “no significant change”.

Values taken from patent publication US12390467B2, “Necroptosis inducers or autophagy inhibitors or a combination thereof” (The University of Toledo, priority 2018, dated 2025).
